Test results reported in US9801832B2, “Pharmaceutical composition having synergistic action of direct catalase inhibitors and modulators of no metabolism or of extracellular superoxide anion production which lead to catalase destruction” (Universitaetsklinikum Freiburg, priority 2012, dated 2017).

Legend:
[1] = tested on: MKN-45 gastric carcinoma cells; assay: Induction of apoptosis in MKN-45 gastric carcinoma cells (percentages of apoptotic cells); format: cell-based, human; details: for synergistic interaction with salicylic acid in the induction of apoptosis: 6 hours (FIGS. 22-25); for induction of apoptosis, substance alone at the concentration of the combination: 0.15 ng/ml cyanidine alone, 0.08 μg/ml salicylic acid alone; for dependence of the induction of apoptosis on singlet oxygen: 2 mM histidine (singlet oxygen scavenger); for induction of apoptosis: 12 500 MKN-45 cells in 100 μl, 4-6.5 hours at 37° C.
Method: 12 500 MKN-45 cells in 100 μl (duplicate batches) were treated with the given concentrations of salicylic acid or remained free from salicylic acid. After 10 minutes the given concentrations of cyanidine were added.
12 500 MKN-45 cells in 100 μl (duplicate batches) were treated with 0.1 μg/ml salicylic acid or remained free from salicylic acid (control). […] After 6.5 hours the percentages of apoptotic cells were determined in duplicate batches.
12 500 MKN-45 cells in 100 μl (duplicate batches) either received no additive (control), 2 mM of the singlet oxygen scavenger histidine or 25 μM Caspase-8 inhibitor. […] After another 15 minutes cyanidine was added in the given concentrations. After 6.5 hours of incubation at 37° C. the percentages of apoptotic cells were determined.
12 500 MKN-45 cells in 100 μl (duplicate batches) either received no additive (control), 2 mM of the singlet oxygen scavenger histidine or 25 μM Caspase-8 inhibitor. […] After 6.5 hours incubation at 37° C. the percentage of apoptotic cells was determined. […]
12 500 MKN-45 cells in 100 μl medium were incubated with increasing concentrations of the given active ingredients, in the presence or absence of 0.1 μg/ml salicylic acid for 6 hours and then, the percentages of the apoptotic cells were determined (repeated determination).

tumor cell catalase = molecular target: T1, tumor cell catalase (Homo sapiens, UniProt P04040); assay: Catalase inhibition/inactivation in MKN-45 cells by challenge with exogenous peroxynitrite, NO donor or glucose oxidase; format: cell-based; design: endogenous in cells; host or cells: MKN-45 gastric carcinoma cells; details: 200 μM peroxynitrite; for inhibition of tumor cell catalase (sensitization to exogenous peroxynitrite) / catalase inhibition / sensitization to peroxynitrite with inhibited superoxide anion synthesis: MKN-45; for catalase inhibition / sensitization to peroxynitrite with inhibited superoxide anion synthesis: 100 μM AEBSF; for requirement of singlet oxygen, superoxide anions and NO for catalase inhibition/inactivation: 2 mM histidine, 100 μM AEBSF or 2.4 mM L-NAME, MKN-45 (FIGS. 14, 15)
T1 sequence (P04040 2-527 limits assumed): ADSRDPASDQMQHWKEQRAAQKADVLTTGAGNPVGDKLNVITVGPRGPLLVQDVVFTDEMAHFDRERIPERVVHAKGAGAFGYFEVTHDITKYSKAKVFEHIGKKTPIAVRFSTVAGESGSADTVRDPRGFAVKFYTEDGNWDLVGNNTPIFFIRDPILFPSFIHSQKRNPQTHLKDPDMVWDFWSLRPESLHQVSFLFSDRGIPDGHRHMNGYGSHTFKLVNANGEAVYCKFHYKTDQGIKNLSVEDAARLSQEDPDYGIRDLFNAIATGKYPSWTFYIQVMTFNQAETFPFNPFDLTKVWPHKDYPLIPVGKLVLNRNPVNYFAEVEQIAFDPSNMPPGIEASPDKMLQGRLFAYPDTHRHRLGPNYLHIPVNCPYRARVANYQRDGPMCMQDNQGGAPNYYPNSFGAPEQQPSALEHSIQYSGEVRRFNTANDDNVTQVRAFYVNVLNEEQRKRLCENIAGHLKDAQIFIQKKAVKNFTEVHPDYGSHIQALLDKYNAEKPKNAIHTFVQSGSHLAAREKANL
Method: Direct catalase inhibition with relevance to the induction of apoptosis in tumor cells can be determined by pre-incubating tumor cells at first in the presence of the singlet oxygen scavenger histidine (2 mM) with the substance to be tested in increasing concentration (between 10 and 30 minutes at 37° C.) and subsequently adding peroxynitrite in the concentration range between 10 and 200 μM. The tumor cells are protected from the apoptosis-triggering effect of peroxynitrite by their membranous catalase. An inhibition of the catalase partially or completely cancels this protection and in the presence of peroxynitrite leads to the induction of apoptosis. The presence of 2 mM histidine ensures that the measured induction of apoptosis is not a singlet oxygen-mediated inactivation of the catalase by destruction of its active center. Alternatively, instead of addition of histidine inhibition of the NADPH oxidase by 100 μM AEBSF may take place. With prevented superoxide anion production also no singlet oxygen formation in the test system is possible.
4000 MKN-45 cells per 100 μl in […] were treated with increasing concentrations of monoclonal antibodies against catalase “Anti-KAT” or Anti-EGFR. After 15 minutes either 200 μM peroxynitrite (“PON”), 0.5 mM DEA-NONOate (rapidly decomposing NO donor), or 2 mU/ml glucose oxidase (GOX) that continuously generates hydrogen peroxide were added. After another two hours at 37° C. the percentages of apoptotic cells were determined in duplicate batches.
The principle of identification is based on the fact that tumor cells (here MKN-45 gastric carcinoma cells) are protected from the apoptosis-triggering effect of exogenously added peroxynitrite by their membranous catalase. Addition of catalase inhibitors sensitizes the cells to the effect of exogenous peroxynitrite.
The experiment was performed in analogy to that described in FIG. 9 except that instead of Anti-KAT a monoclonal antibody against SOD was used. The cells were tested in two different densities, namely 4000 and 12 500 cells per 100 μl. The challenge to test the activity of catalase was carried out with 200 μM peroxynitrite, or 0.5 mM DEA NONOate or 2 mU/ml GOX.
Subsequently, 200 μM or no peroxynitrite was added. After 1.5 hours the percentages of apoptotic cells were determined in duplicate batches.
Subsequently, 200 μM or no peroxynitrite was added. After 1 hour the percentages of apoptotic cells were determined in duplicate batches.
12 500 MKN-45 cells in 100 μl medium received 100 μM AEBSF or no additive. After 15 minutes the given concentrations of cyanidine were added and the batches were incubated for 15 minutes at 37° C. Subsequently, 200 μM peroxynitrite (PON) were added or the batches were not treated with peroxynitrite (control). After 1 hour the percentages of apoptotic cells were determined in duplicate batches.
12 500 MKN-45 cells received no addition (control), or 2 mM histidine, or 100 μM AEBSF or 2.4 mM L-NAME immediately before the addition of the given concentrations of salicylic acid (“0 min”) or 20 minutes after addition of salicyl. 20 minutes after the addition of salicylic acid 200 μM peroxynitrite (PON) were added to all batches except the control batches. After another 2 hours the percentages of apoptotic cells were determined in duplicates.

Gumbus lymphoma cells = assay: Induction of apoptosis in Gumbus lymphoma cells (percentages of apoptotic cells); format: cell-based, human
Method: 12 500 MKN-45 gastric carcinoma cells (A) or 25 000 Gumbus lymphoma cells (B) in 100 μl complete medium each either remained untreated (control) or received 2 mM histidine (singlet oxygen scavenger), 50 mM taurine (HOCl scavenger), or 2.4 mM L-NAME (NOS inhibitor). In Experiment A, additionally 10 mM mannitol (hydroxyl radical scavenger), 150 μM ABH (peroxidase inhibitor), 100 U/ml MnSOD (superoxide anion scavenger) and 25 μM FeTPPS (peroxynitrite decomposer) were used. Subsequently, the given concentrations of salicylic acid were added. After 5 hours (A) and 4 hours, respectively, of incubation at 37° C. the percentages of apoptotic cells were determined in duplicate batches according to the classical apoptosis features nuclear condensation, nuclear fragmentation, and membrane blebbing. Here, at least 200 cells were evaluated pre batch. […] Inhibitors: singlet oxygen scavenger histidine 2 mM; HOCl scavenger taurine 50 mM, NOS inhibitor L-NAME 2.4 mM, peroxidase inhibitor ABH 150 μM.

[2] = 0.1 μg/ml salicylic acid, MKN-45

N=C(NO)NCC[C@H](N)C(=O)O [NOR-NOHA]
synergistic interaction with salicylic acid in the induction of apoptosis [1, 2]: synergistically reacts

C=CCN=C=S [allylisothiocyanate]
synergistic interaction with salicylic acid in the induction of apoptosis [1, 2]: synergistically reacts

N=C(N)NCCC[C@H](N)C(=O)O [arginine]
synergistic interaction with salicylic acid in the induction of apoptosis [1, 2]: synergistically reacts

C[C@@H]1CC[C@H]2[C@@H](C)C(=O)O[C@@H]3O[C@@]4(C)CC[C@@H]1[C@]32OO4 [artemisinin]
synergistic interaction with salicylic acid in the induction of apoptosis [1, 2]: synergistically reacts

O=C1O[C@H]([C@@H](O)CO)C(O)=C1O [ascorbic acid]
synergism with cyanidine in the induction of apoptosis [1]: Synergism is achieved | synergism with taxol in the induction of apoptosis [1]: Synergism is achieved | inhibition of tumor cell catalase (sensitization to exogenous peroxynitrite) (tumor cell catalase): directly inhibit catalase

Oc1cc(O)c2cc(O)c(-c3ccc(O)c(O)c3)[o+]c2c1.[Cl-] [cyanidine, cyanidine chloride]
induction of apoptosis, substance alone at the concentration of the combination ([1]; MKN-45 (FIG. 16)): remained ineffective | induction of apoptosis by the combination with salicylic acid ([1]; 0.15 ng/ml cyanidine with 0.08 μg/ml salicylic acid, MKN-45 (FIG. 16)): maximum induction of apoptosis | dependence of the synergistic effect with salicylic acid on Caspase-8 ([1]; 0.1 μg/ml salicylic acid, 25 μM Caspase-8 inhibitor, MKN-45, 6.5 hours (FIGS. 18, 19)): independent of Caspase-8 | dependence of the synergistic effect with salicylic acid on singlet oxygen ([1]; 0.1 μg/ml salicylic acid, 2 mM histidine, MKN-45, 6.5 hours (FIGS. 18, 19)): also based on the effect of singlet oxygen | synergistic effect with salicylic acid in the induction of apoptosis ([1]; 0.1 μg/ml salicylic acid, MKN-45, 6.5 hours (FIG. 17)): remarkable synergistic effect | EC50 ([1]; Homo sapiens, applied alone, MKN-45, 6 hours (FIG. 16), read-out: concentration at half-maximum value of induction of apoptosis): ~0.02 µg/mL | concentration at optimum of induction of apoptosis ([1]; applied alone, MKN-45, 6 hours (FIG. 16)): 0.3 µg/mL | synergistic effect with salicylic acid in the induction of apoptosis ([1]; given concentrations of salicylic acid, MKN-45, 6 hours (FIG. 16)): considerable synergistic effect | dependence of the induction of apoptosis on Caspase-8 ([1]; substance alone, 25 μM Caspase-8 inhibitor, MKN-45): depends on the activity of dead receptors (such as FAS) and the thus activated Caspase-8 | dependence of the induction of apoptosis on singlet oxygen ([1]; substance alone, MKN-45): depends on singlet oxygen | induction of apoptosis ([1]; substance alone): concentration-dependent induction of apoptosis | catalase inhibition / sensitization to peroxynitrite with inhibited superoxide anion synthesis (tumor cell catalase): do not exhibit sensitivity for peroxynitrite | inhibition of tumor cell catalase (sensitization to exogenous peroxynitrite) (tumor cell catalase): leads to a sensitization to peroxynitrite | requirement of singlet oxygen, superoxide anions and NO for catalase inhibition/inactivation (tumor cell catalase): requires singlet oxygen, superoxide anions and NO

C=CCSSCC=C [diallyldisulfide]
synergistic interaction with salicylic acid in the induction of apoptosis [1, 2]: synergistically reacts

C=CCSCC=C [diallylsulfide]
synergistic interaction with salicylic acid in the induction of apoptosis [1, 2]: not

COc1cc(O)c(CC=C(C)C)c2c1C(=O)CC(c1ccc(O)cc1)O2 (stereo not drawn) [isoxanthohumol]
synergistic interaction with salicylic acid in the induction of apoptosis [1, 2]: synergistically reacts

CCCCCCCCCCCCCCCC(=O)O [palmitic acid]
synergistic interaction with salicylic acid in the induction of apoptosis [1, 2]: synergistically reacts

O=c1c(O)c(-c2ccc(O)c(O)c2)oc2cc(O)cc(O)c12 [quercetin]
synergistic interaction with salicylic acid in the induction of apoptosis [1, 2]: synergistically reacts

O=C(O)c1ccccc1O [salicylic acid]
dependence of the induction of apoptosis on singlet oxygen (Gumbus lymphoma cells; 2 mM histidine (singlet oxygen scavenger), Gumbus cells): does not depend on singlet oxygen | ROS signal path of the induced apoptosis (inhibitor profile) (Gumbus lymphoma cells; Gumbus cells, L-NAME, taurine, ABH): In the low concentration range of the salicylic acid preferably the NO/peroxynitrite signal path runs, with higher concentrations the HOCl path predominates | induction of apoptosis (Gumbus lymphoma cells; substance alone, 25 000 Gumbus lymphoma cells in 100 μl, 4 hours at 37° C.): induces ROS-dependent induction of apoptosis | synergism with cyanidine in the induction of apoptosis [1]: Synergism is achieved | synergism with taxol in the induction of apoptosis [1]: Synergism is achieved | induction of apoptosis, substance alone at the concentration of the combination ([1]; MKN-45 (FIG. 16)): remained ineffective | induction of apoptosis, alone at 0.1 μg/ml ([1]; 0.1 μg/ml, MKN-45 (FIG. 18)): ineffective in itself | ROS signal path of the induced apoptosis (inhibitor profile) ([1]; MKN-45, L-NAME, FeTPPS, taurine, ABH): In the low concentration range of the salicylic acid preferably the NO/peroxynitrite signal path runs, with higher concentrations the HOCl path predominates | concentration up to which almost no effect on apoptosis is shown ([1]; administered alone, MKN-45, 6 hours (FIG. 16)): up to 0.32 μg/ml | dependence of the induction of apoptosis on singlet oxygen ([1]; substance alone, MKN-45): does not depend on singlet oxygen | induction of apoptosis ([1]; substance alone): induces ROS-dependent induction of apoptosis | catalase inactivation, alone at the chosen concentration (tumor cell catalase; 6.25 ng/ml alone, MKN-45 (FIG. 21)): almost no catalase inactivation | catalase inhibition / sensitization to peroxynitrite with inhibited superoxide anion synthesis (tumor cell catalase): independent of the superoxide anion synthesis | inhibition of tumor cell catalase (sensitization to exogenous peroxynitrite) (tumor cell catalase): inhibits the catalase of the tumor cells | requirement of singlet oxygen, superoxide anions and NO for catalase inhibition/inactivation (tumor cell catalase): independent of superoxide anions, NO and singlet oxygen

COc1cc(O)c(CC=C(C)C)c(O)c1C(=O)/C=C/c1ccc(O)cc1 [xanthohumol]
synergistic interaction with salicylic acid in the induction of apoptosis [1, 2]: synergistically reacts
